Results reported in article PMC5479350 (Journal of virological methods, 2017).
“And” between values parts separate entries of the source, which are not always exact repeats. Equal entries are not always repeated. Where two headings read alike, the source gives them in different places.

Assays:
[1] = system: Chikungunya virus (S27 strain); test: microbe, parasite or virus in culture; type: cell-based; details: for EC50: Chikungunya virus, Vero 76, read-out: EC50 (mean 50% effective, virus-inhibitory concentration ± SD)
[2] = system: Dengue virus Type 2 (New Guinea C strain); test: microbe, parasite or virus in culture; type: cell-based; details: for EC50: Dengue virus, Vero 76, read-out: EC50 (mean 50% effective, virus-inhibitory concentration ± SD)
[3] = system: Junin virus (Candid #1 strain); type: cell-based
[4] = system: proliferating, uninfected Vero 76 cells
in vitro = details: African green monkey

Row | Structure (SMILES) | EC50 [1] | Inhibition of dengue virus (in words) [2] | SI (Selectivity Index, CC50/EC50) [2] | EC50 [2] | Inhibition of Junin virus (in words) [3] | SI (Selectivity Index, CC50/EC50) [3] | Inhibition of chikungunya virus (in words) [1] | SI (Selectivity Index, CC50/EC50) [1] | Mean 50% cytotoxic concentration ± SD, ALB-Abs ([4]; 4 days, N=3) | Mean 50% cytotoxic concentration ± SD, ALB-Fluor ([4]; 4 days, N=3) | Mean 50% cytotoxic concentration ± SD, Neutral Red ([4]; 4 days, N=3) | Mean 50% cytotoxic concentration ± SD, Viral ToxGlo ([4]; 4 days, N=3) | Mean 50% cytotoxic concentration ± SD, WST-1 ([4]; 4 days, N=3) | CC50 (in vitro; CC50, range over the dyes) | Mean 50% cytotoxic concentration ± SD, Neutral Red ([4]; African green monkey) | Mean 50% cytotoxic concentration ± SD, Viral ToxGlo ([4]; African green monkey) | CC50 (in vitro; CC50 with ALB-F) | CC50 (in vitro; CC50 with all other dyes including ALB-A) | CC50 (in vitro; CC50 (toxicity) with ALB-A and ALB-F) | CC50 (in vitro; CC50 (toxicity) with NR, VTG, and WST-1)
1 | Nc1ncnc2c([C@@H]3N[C@H](CO)[C@@H](O)[C@H]3O)c[nH]c12 [BCX4430] | > 100 µM | weak dengue-inhibitory activity | >3 | 37 ± 22 µM |  |  |  |  |  |  |  |  |  |  |  |  |  |  |  | 
2 | NC(=O)c1nc(F)c[nH]c1=O [Favipiravir] | > 100 µM |  |  | > 100 µM | inhibited | >23 |  |  |  |  |  |  |  |  |  |  |  |  |  | 
3 | C#Cc1c(C(N)=O)ncn1[C@@H]1O[C@H](CO)[C@@H](O)[C@H]1O [EICAR, 5-ethynyl-1-beta-D-ribofuranosylimidazole-4-carboxamide] | 10.3 ± 13 µM |  | >8 | 13.3 ± 22.1 µM | inhibited | >52 | inhibited | >10 | 4.9 ± 1.4 µM and 3.9 ± 1.3 µM | 9.5 ± 4.2 µM and 8.2 ± 2.2 µM | 2.9 ± 1.0 µM | 2.7 ± 1.4 µM | 2.8 ± 1.1 µM and 3.9 ± 1.3 µM | 1.5 to 8.9 µM |  |  |  |  |  | 
4 | NC(=O)c1csc([C@@H]2O[C@H](CO)[C@@H](O)[C@H]2O)n1 [Tiazofurin] | > 100 µM | ineffective |  | > 100 µM | ineffective |  | ineffective |  |  |  |  |  |  |  |  |  |  |  |  | 
5 | Nc1cc2nc[nH]c2c(=O)[nH]1 [3-Deazaguanine] | 13 ± 8.3 µM |  | >22 | 4.6 ± 6.3 µM | inhibited | >63 | inhibited | >8 |  |  |  |  |  |  | 3.0 ± 1.1 µM | 1.5 ± 0.7 µM | 83 to 93 µM | 2.4 to 7 µM |  | 
6 | O=c1cnn([C@@H]2O[C@H](CO)[C@@H](O)[C@H]2O)c(=O)[nH]1 [6-Azauridine] | 8 ± 10.4 µM |  | >12 | 8.4 ± 10.8 µM | inhibited | >151 | inhibited | >13 | 48.0 ± 11.5 µM and 48.0 ± 19.9 µM | 69.0 ± 10.5 μM and 94.0 ± 10.4 ^*^, ^φ μM | 6.2 ± 0.9 µM | 17.0 ± 5.3 µM | 6.2 ± 1.0 μM and 7.1 ± 1.8 ^b μM |  |  |  |  |  | 48 to 92 µM | 6.1 to 17.5 µM
7 | NC(=O)c1ncn([C@@H]2O[C@H](CO)[C@@H](O)[C@H]2O)n1 [Ribavirin, 1-beta-D-ribofuranosyl-1,2,4-triazole-3-carboxamide] | > 100 µM |  |  | > 100 µM | inhibited | >7 |  |  |  |  |  |  |  |  |  |  |  |  |  | 
8 | COc1c(C)c2c(c(O)c1C/C=C(\C)CCC(=O)O)C(=O)OC2 [Mycophenolic acid, mycophenolic acid] | 1.6 ± 1.7 µM |  | >22 | 4.5 ± 6.6 µM | inhibited | >100 | inhibited | >61 | 1.4 ± 0.3 µM and 1.2 ± 0.2 µM | 1.9 ± 0.1 µM and 2.5 ± 0.5 µM | 0.8 ± 0.6 µM | 0.7 ± 0.2 µM | 0.5 ± 0.1 µM | 0.8 to 2.5 µM |  |  |  |  |  | 
